Experimental data taken from patent US20080319001A1, “Cancer Treatment Using Specific 3,6,9-Substituted Acridines” (priority 2005, published 2008).
Like-named read-outs stand apart in the source and are kept apart here.

Columns and labels:
[1] = HPLC solution stability; type: physicochemical
Procedure: Due to the generally low solubility of these compounds in 0.9% NaCl and 5% dextrose it was decided to mix these media with 50% Iso-propanol (IPA) to maintain full dissolution of the compound during these studies.
The remaining 5 mg/ml DMSO stock solution from the pKa determination was used for the stability studies. This solution had been stored in the fridge for several days before these stability studies. A solution with a concentration of 0.1 mg/ml was prepared for each experiment (50 fold dilution of DMSO stock). Stability trials were carried out at 4° C. (fridge) and 25° C. (on top of shaker at 25° C.) and at time points of 0, 1 and 7 days. In the case of 100% IPA data was collected at 0, 1 and 14 days after storage at 25° C. The HPLC purity method discussed in section 4.5 below was used for purity analysis. The largest and second largest peaks were added together due to separation of rotamers as discussed above.

[2] = Cytotoxicity / growth inhibition, A549; type: cell-based; conditions: human, A549 cells; read-out: Cytotoxic IC50 vs. A549
[3] = LogP/D measurement (octanol/ISA water titration); type: physicochemical; conditions: for logD / logP: octanol/ISA (ionic strength adjusted) water; for logP / Measured LogPion: octanol/ISA water; for logP: read-out: Measured LogP
Procedure: The LogP values were measured by titration of solutions of the compound in Octanol/ISA (ionic strength adjusted) water mixtures on a Sirius GipKa instrument. Titrations in different ratios of Octanol to water enabled the calculation of the Log Pion values and therefore the LogD profile. Prediction of LogP values were made using ACD v8.07 and Syracuse KNOWWIN v1.67 software.

[4] = Pharmacokinetic evaluation in mice (plasma kinetics); type: in vivo, mouse; conditions: for AUC(0-t): female, MF1, mouse; for Cmax / clearance / half-life: mouse, female MF1 mice; for half-life: single dose (1 mg/kg iv or 20 mg/kg oral; route not stated with values)
Procedure: The test article is identified as BSG17 and has been studied in comparison to BSG01 (BRACO-19). The vials containing bulk test article were stored at room temperature (15-30° C.).
The test compound was reconstituted in 0.9% physiological saline B.P. to the required final concentrations. To ensure the stability of the test formulations, prepared formulations were administered within two hours of preparation.
Treated mice received a single bolus intravenous injection or oral gavage of the test formulations at a dose-volume of […] bodyweight. Control mice were untreated.
The mouse was selected because it is a rodent species and is acceptable to the regulatory authorities for pharmacokinetic studies. Dose levels of 1 mg/kg (intravenous) and 20 mg/kg (oral) were selected for this study.
Female MF1 mice in the weight rang of 26-30 g (6 to 8 weeks of age) were obtained from the BRF Facility, SGHMS/Harlan UK, Bicester and were individually identified using a permanent tail mark (using a non-toxic marker pen). The test article was administered to thirty-six (36) mice after a period of seven (7) days of acclimatisation to the study room.
Blood samples were obtained from three mice per time point and at the time points as specified below:
Blood samples were collected by cardiac puncture with mice held under deep halothane anaesthesia. After sampling mice were euthanased by cervical dislocation.
Samples were collected into pre-heparinised syringes and the samples transferred into 1 ml eppendorf tubes. Plasma was prepared by centrifugation, transferred to clean, labelled eppendorf tubes and frozen at approximately −20° C. pending analysis.
Samples were analysed using HPLC or GC-MS/MS methodology.
Composite plasma concentration time curves were generated over the period of 6-8 hours after the bolus iv or oral dose was administered.

[5] = test system: telomerase (extracts from A2780 human ovarian carcinoma cells); experiment: Modified telomeric repeat amplification protocol (TRAP) assay, cell-free; type: biochemical
Procedure: The ability of compounds to inhibit telomerase in a cell-free assay was assessed with a modified TRAP assay using extracts from exponentially growing A2780 human ovarian carcinoma cells. The TRAP assay was performed in 2 steps: • (a) telomerase-mediated extension of the forward primer (TS: 5′-AATCCGTCGAGCAGAGTT, Oswel Ltd., Southampton, UK) contained in a 40 μL reaction mix comprising TRAP buffer (20 mM Tris-HCl (pH 8.3), 68 mM KCl, 1.5 mM MgCl2, 1 mM EGTA, 0.05% v/v Tween 20), 0.05 μg bovine serum albumin, 50 μM of each deoxynucleotide triphosphate, 0.1 μg TS primer, and 3 μCi of [α-P]dCTP (Amersham plc, UK)Protein (40 ng or 20 ng) was then incubated with the reaction mix and agent (acid addition and quaternary dimethiodide salts) at final concentrations of up to 50 μM for 20 min at 25° C. A lysis buffer (no protein) control, heat-inactivated protein control, and 50% protein (20 ng or 10 ng) control were included in each assay; and • (b) while heating at 80° C. in a PCR block of a thermal cycler (Hybaid, UK) for 5 min to inactivate telomerase activity, 0.1 μg of reverse CX primer (3′-[…]-5′) and 2 Units of Taq DNA polymerase (“red hot”, Advanced Biotechnologies) were added. A 3-step PCR was then performed: 94° C. for 30 s, 50° C. for 30 s, and 72° C. for 1 min for 31 cycles. Telomerase-extended PCR products in the presence or absence of compounds were then determined either by electrophoretic separation using 8% w/w acrylamide denaturing gels and analysis by phosphorimaging or autoradiography, or by harvesting on Whatman filters (25 mm glass microfibre) and analysis by liquid scintillation counting.

[6] = 0.9% NaCl mixed with 50% IPA, 0 days
[7] = 0.9% NaCl mixed with 50% IPA, 1 day, 4 ° C.
[8] = 0.9% NaCl mixed with 50% IPA, 1 day, 25 ° C.
[9] = 0.9% NaCl mixed with 50% IPA, 7 days, 4 ° C.
[10] = 0.9% NaCl mixed with 50% IPA, 7 days, 25 ° C.
[11] = 5% Dextrose mixed with 50% IPA, 0 days
[12] = 5% Dextrose mixed with 50% IPA, 1 day, 4 ° C.
[13] = 5% Dextrose mixed with 50% IPA, 1 day, 25 ° C.
[14] = 5% Dextrose mixed with 50% IPA, 7 days, 4 ° C.
[15] = 5% Dextrose mixed with 50% IPA, 7 days, 25 ° C.
[16] = pH 6, read-out: Measured LogD pH 6
[17] = pH 6.5, read-out: Measured LogD pH 6.5
[18] = pH 7.4, read-out: Measured LogD pH 7.4
[19] = Table 3, unit inferred, read-out: TRAP EC50
[20] = Table 4, read-out: Telomerase EC50

## O=C(CCN1CCCC1)Nc1ccc2c(NCc3ccc(F)c(F)c3)c3ccc(NC(=O)CCN4CCCC4)cc3nc2c1 [BSG17, N-(9-(3,4-Difluoro-benzylamino)-6-(3-pyrolidin-1-yl-propionamide)-acridin-3-yl)-3-pyrrolidin-1-yl-propionamide]
[1]; [6]
  Combined rotamer purity: 89.4
  Purity larger rotamer peak: 61.4
  Purity smaller rotamer peak: 28.0
[1]; [7]
  Combined rotamer purity: 85.1
  Purity larger rotamer peak: 58.4
  Purity smaller rotamer peak: 26.8
[1]; [8]
  Combined rotamer purity: 82.4
  Purity larger rotamer peak: 55.9
  Purity smaller rotamer peak: 26.5
[1]; [9]
  Combined rotamer purity: 61.0
  Purity larger rotamer peak: 39.2
  Purity smaller rotamer peak: 21.8
[1]; [10]
  Combined rotamer purity: 54.5
  Purity larger rotamer peak: 33.8
  Purity smaller rotamer peak: 20.8
[1]; [11]
  Combined rotamer purity: 88.5
  Purity larger rotamer peak: 60.7
  Purity smaller rotamer peak: 27.8
[1]; [12]
  Combined rotamer purity: 83.8
  Purity larger rotamer peak: 56.9
  Purity smaller rotamer peak: 26.9
[1]; [13]
  Combined rotamer purity: 78.0
  Purity larger rotamer peak: 52.4
  Purity smaller rotamer peak: 25.6
[1]; [14]
  Combined rotamer purity: 53.2
  Purity larger rotamer peak: 32.5
  Purity smaller rotamer peak: 20.7
[1]; [15]
  Combined rotamer purity: 39.4
  Purity larger rotamer peak: 22.3
  Purity smaller rotamer peak: 17.1
[1]; 100% IPA, 0 days
  Combined rotamer purity: 84.6
  Purity larger rotamer peak: 58.8
  Purity smaller rotamer peak: 25.8
[1]; 100% IPA, 1 day, 25 ° C.
  Combined rotamer purity: 81.5
  Purity larger rotamer peak: 56.6
  Purity smaller rotamer peak: 25.0
[1]; 100% IPA, 14 days, 25 ° C.
  Combined rotamer purity: 77.2
  Purity larger rotamer peak: 52.7
  Purity smaller rotamer peak: 24.5
[2]
  IC50 at 96 h: 2120 nM
[3]; [16]
  logD: -0.15
[3]; [17]
  logD: 0.38
[3]; [18]
  logD: 1.58
[3]
  logP: 5.54
  Measured LogPion: 3.75
[4]; Table 3
  AUC(0-t): 1.23 µM·h
[4]; unit inferred
  AUC(0-t): 1.23 µM·h
[4]
  Cmax: 1700 nM
  clearance: 0.667 mL/min
  half-life: 2.1 h
[5]; [19]
  EC50: 32 nM
[5]; [20]
  EC50: 162 nM

## CN(C)c1ccc(Nc2c3ccc(NC(=O)CCN4CCCC4)cc3nc3cc(NC(=O)CCN4CCCC4)ccc23)cc1 [BSG01]
[1]; [6]
  Combined rotamer purity: 95.4
  Purity larger rotamer peak: 89.8
  Purity smaller rotamer peak: 5.7
[1]; [7]
  Combined rotamer purity: 95.7
  Purity larger rotamer peak: 86.8
  Purity smaller rotamer peak: 8.9
[1]; [8]
  Combined rotamer purity: 93.5
  Purity larger rotamer peak: 82.3
  Purity smaller rotamer peak: 11.2
[1]; [9]
  Combined rotamer purity: 66.8
  Purity larger rotamer peak: 47.5
  Purity smaller rotamer peak: 19.4
[1]; [10]
  Combined rotamer purity: 47.6
  Purity larger rotamer peak: 35.1
  Purity smaller rotamer peak: 12.5
[1]; [11]
  Combined rotamer purity: 94.8
  Purity larger rotamer peak: 88.7
  Purity smaller rotamer peak: 6.1
[1]; [12]
  Combined rotamer purity: 94.5
  Purity larger rotamer peak: 84.5
  Purity smaller rotamer peak: 10.00
[1]; [13]
  Combined rotamer purity: 94.5
  Purity larger rotamer peak: 79.5
  Purity smaller rotamer peak: 15.0
[1]; [14]
  Combined rotamer purity: 79.3
  Purity larger rotamer peak: 48.4
  Purity smaller rotamer peak: 30.9
[1]; [15]
  Combined rotamer purity: 68.0
  Purity larger rotamer peak: 35.2%
  Purity smaller rotamer peak: 32.8
[1]; 100% IPA, 0 days
  Combined rotamer purity: 91.9
  Purity larger rotamer peak: 86.4
  Purity smaller rotamer peak: 5.5
[1]; 100% IPA, 1 day, 25 ° C.
  Combined rotamer purity: 93.2
  Purity larger rotamer peak: 87.2
  Purity smaller rotamer peak: 6.0
[1]; 100% IPA, 14 days, 25 ° C.
  Combined rotamer purity: 94.0
  Purity larger rotamer peak: 82.8
  Purity smaller rotamer peak: 11.2
[2]
  IC50 at 96 h: 2420 nM
[3]; [16]
  logD: -2.56
[3]; [17]
  logD: -1.47
[3]; [18]
  logD: 0.74
[3]
  logP: 5.02
  Measured LogPion: 2.62
[4]; Table 3
  AUC(0-t): 0.96 µM·h
[4]; unit inferred
  AUC(0-t): 0.96 µM·h
[4]
  Cmax: 1900 nM
  clearance: 1 mL/min
  half-life: 1.1 h
[5]; [19]
  EC50: 115 nM
[5]; [20]
  EC50: 115 nM
